Source: patent US20250287947A1, “BIOCIDES AND ADHESIVE BINDING THEREOF” (EBERHARD KARLS UNIVERSITÄT TÜBINGEN MEDIZINISCHE FAKULTÄT, priority 2022, published 2025)

Columns and labels:
[1] = Modulation of the state of matter by pH shift using CO2 (Example 8); format: physicochemical
Text: 1% (w/v) and 5% (w/v) 5-N-carboxamido-2-pyrrolidone-N-n-dodecyl propane-1,3-diamine (Py-C12) free base solutions in water were gassed with carbon dioxide to reduce the pH from 9.5 to 7. […] After degassing of the CO2-gassed solutions, Py-C12 precipitates due to the increasing pH in a time dependent manner (see FIG. 3, right panel).

[2] = tested on: β-galactosidase-expressing E. coli strain; test: Wash resistance and biocidal activity of Py-C12 treated silk fabric (Example 17); format: cell-based; conditions: treated with 1% (w/v) free base; washed 10, 20 and 30 times with water 15 min; E. coli 3 days at 37° C.
Method: (§1) In a first step, 1% (w/v) Py-C12 free base in water was warmed to 50° C. to obtain a liquid solution. After incubation with the Py-C12 solution, the samples were cooled to room temperature upon which the liquid Py-C12 was converted into a solid phase and thus immobilized to the material. After drying, samples were washed with water at room temperature 10, 20, and 30 times for 15 minutes each time. Thereafter, all samples were inoculated with a β-galactosidase-expressing E. coli strain and then incubated for 3 days at 37° C.

[3] = tested on: β-galactosidase-expressing E. coli strain; test: Wash resistance and biocidal activity of Py-C12 treated polyester fabric (Example 16); format: cell-based; conditions: treated with 5% (w/v) free base, E. coli 3 days at 37° C.
Method: as §1, with “5%” for “1%”

[4] = Modulation of the state of matter by temperature shift (Example 10); format: physicochemical; conditions: 1% and 5% (w/v) free base in water
[5] = Influence of temperature on the state of matter of Py-C12 free base at different concentrations in water (Example 4); format: physicochemical; parameters: key: X: liquid; o: solid
Method: 5-N-carboxamido-2-pyrrolidone-N-n-dodecyl propane-1,3-diamine (Py-C12) free base at concentrations of 1% (w/v), 2.5% (w/V), 5% (w/V), 10% (w/V), 20% (w/), 30% (W/), 40% (w/V) were incubated at temperatures between 36° C. and 50° C. (see table 4).

[6] = Interactions between salt concentration, temperature and pH on the state of matter of Py-C12 (Example 3); format: physicochemical; parameters: key: X: liquid; o: solid; conditions: 5% w/v
Method: […] The samples were combined with NaCl solutions using concentrations between 0 and 3 M in water and subsequently incubated at temperatures between 24° C. and 45° C.

[7] = tested on: β-galactosidase-expressing E. coli strain; test: Wash resistance and biocidal activity of Py-C12 treated cotton textile (Example 6); format: cell-based; conditions: treated with 1% (w/v) pH 7.0, E. coli 3 days at 37° C.
Method: Round sterile cotton textile samples were treated with a liquid Py-C12 solution (1% (w/v) in water; pH 7.0) followed by intensive washing steps. For controls, samples were treated with water instead of Py-C12.
For testing wash resistance in an aqueous system samples were incubated in water for 20 h at 50° C. and then washed 16 times with water at 37° C. for 5 to 10 minutes each time.
For testing wash resistance in an alcoholic/acidic system, samples were washed 8 times with 2-propanol/1 mN HCl solution and 8 times with water in total.
After all washing steps, all samples were inoculated with a β-galactosidase-expressing E. coli strain and then incubated for 3 days at 37° C.

CCCCCCCCCCCCNCCCNC(=O)C1CCC(=O)N1 (centres unmarked) [Py-C12, 5-N-carboxamido-2-pyrrolidone-N′-n-dodecyl propane-1,3-diamine]
solubility in water ([1]; 1% and 5% (w/v) free base gassed with CO2, pH from 9.5 to 7, room temperature): completely soluble | state of matter after degassing ([1]; 1% and 5% (w/v), after degassing of CO2, increasing pH, time dependent): precipitates | bacterial growth on treated silk fabric after washing [2]: Blue coloured bacteria only appear in control sample | bacterial growth on treated polyester fabric after washing ([3]; washed 10 times with water 15 min): unstained | bacterial growth on treated polyester fabric after washing ([3]; washed 20 times with water 15 min): unstained | bacterial growth on treated polyester fabric after washing ([3]; washed 30 times with water 15 min): Blue coloured bacteria | solubility in water ([4]; 50° C.): completely soluble | state of matter ([4]; room temperature): readily precipitated | state of matter ([5]; free base 1% (w/v) in water, 36° C.): o | state of matter ([5]; free base 1% (w/v) in water, 38° C.): o | state of matter ([5]; free base 1% (w/v) in water, 40° C.): X | state of matter ([5]; free base 1% (w/v) in water, 42° C.): X | state of matter ([5]; free base 1% (w/v) in water, 44° C.): X | state of matter ([5]; free base 1% (w/v) in water, 46° C.): X | state of matter ([5]; free base 1% (w/v) in water, 48° C.): X | state of matter ([5]; free base 1% (w/v) in water, 50° C.): X | state of matter ([5]; free base 2.5% (w/v) in water, 36° C.): o | state of matter ([5]; free base 2.5% (w/v) in water, 38° C.): o | state of matter ([5]; free base 2.5% (w/v) in water, 40° C.): X | state of matter ([5]; free base 2.5% (w/v) in water, 42° C.): X | state of matter ([5]; free base 2.5% (w/v) in water, 44° C.): X | state of matter ([5]; free base 2.5% (w/v) in water, 46° C.): X | state of matter ([5]; free base 2.5% (w/v) in water, 48° C.): X | state of matter ([5]; free base 2.5% (w/v) in water, 50° C.): X | state of matter ([5]; free base 5% (w/v) in water, 36° C.): o | state of matter ([5]; free base 5% (w/v) in water, 38° C.): o | state of matter ([5]; free base 5% (w/v) in water, 40° C.): X | state of matter ([5]; free base 5% (w/v) in water, 42° C.): X | state of matter ([5]; free base 5% (w/v) in water, 44° C.): X | state of matter ([5]; free base 5% (w/v) in water, 46° C.): X | state of matter ([5]; free base 5% (w/v) in water, 48° C.): X | state of matter ([5]; free base 5% (w/v) in water, 50° C.): X | state of matter ([5]; free base 10% (w/v) in water, 36° C.): o | state of matter ([5]; free base 10% (w/v) in water, 38° C.): o | state of matter ([5]; free base 10% (w/v) in water, 40° C.): X | state of matter ([5]; free base 10% (w/v) in water, 42° C.): X | state of matter ([5]; free base 10% (w/v) in water, 44° C.): X | state of matter ([5]; free base 10% (w/v) in water, 46° C.): X | state of matter ([5]; free base 10% (w/v) in water, 48° C.): X | state of matter ([5]; free base 10% (w/v) in water, 50° C.): X | state of matter ([5]; free base 20% (w/v) in water, 36° C.): o | state of matter ([5]; free base 20% (w/v) in water, 38° C.): o | state of matter ([5]; free base 20% (w/v) in water, 40° C.): o | state of matter ([5]; free base 20% (w/v) in water, 42° C.): o | state of matter ([5]; free base 20% (w/v) in water, 44° C.): X | state of matter ([5]; free base 20% (w/v) in water, 46° C.): X | state of matter ([5]; free base 20% (w/v) in water, 48° C.): X | state of matter ([5]; free base 20% (w/v) in water, 50° C.): X | state of matter ([5]; free base 30% (w/v) in water, 36° C.): o | state of matter ([5]; free base 30% (w/v) in water, 38° C.): o | state of matter ([5]; free base 30% (w/v) in water, 40° C.): o | state of matter ([5]; free base 30% (w/v) in water, 42° C.): o | state of matter ([5]; free base 30% (w/v) in water, 44° C.): X | state of matter ([5]; free base 30% (w/v) in water, 46° C.): X | state of matter ([5]; free base 30% (w/v) in water, 48° C.): X | state of matter ([5]; free base 30% (w/v) in water, 50° C.): X | state of matter ([5]; free base 40% (w/v) in water, 36° C.): o | state of matter ([5]; free base 40% (w/v) in water, 38° C.): o | state of matter ([5]; free base 40% (w/v) in water, 40° C.): o | state of matter ([5]; free base 40% (w/v) in water, 42° C.): o | state of matter ([5]; free base 40% (w/v) in water, 44° C.): X | state of matter ([5]; free base 40% (w/v) in water, 46° C.): X | state of matter ([5]; free base 40% (w/v) in water, 48° C.): X | state of matter ([5]; free base 40% (w/v) in water, 50° C.): X | state of matter ([6]; pH 4.0, 28° C., 0.5M NaCl): X | state of matter ([6]; pH 4.0, 28° C., 1.0M NaCl): X | state of matter ([6]; pH 4.0, 28° C., 1.5M NaCl): X | state of matter ([6]; pH 4.0, 28° C., 2.0M NaCl): X | state of matter ([6]; pH 4.0, 28° C., 2.5M NaCl): o | state of matter ([6]; pH 4.0, 28° C., 3.0M NaCl): o | state of matter ([6]; pH 4.0, 28° C., no NaCl): X | state of matter ([6]; pH 9.0, 24 °C, 0.5M NaCl): o | state of matter ([6]; pH 9.0, 24 °C, 1.0M NaCl): o | state of matter ([6]; pH 9.0, 24 °C, 1.5M NaCl): o | state of matter ([6]; pH 9.0, 24 °C, 2.0M NaCl): o | state of matter ([6]; pH 9.0, 24 °C, 2.5M NaCl): o | state of matter ([6]; pH 9.0, 24 °C, 3.0M NaCl): o | state of matter ([6]; pH 9.0, 24 °C, no NaCl): o | biocidal effect of treated cotton textile after washing ([7]; alcoholic/acidic system: 8 washes 2-propanol/1 mN HCl and 8 with water): completely colonized | biocidal effect of treated cotton textile after washing ([7]; aqueous system: water 20 h at 50° C., then 16 water washes at 37° C.): maintained its biocidal effect
